Data reported in publication PMC8213057, “Targeting ALK2: An Open Science Approach to Developing Therapeutics for the Treatment of Diffuse Intrinsic Pontine Glioma” (Journal of Medicinal Chemistry, 2020).
Values joined by “and” are separate entries in the source; they are usually repeats but may differ in a detail not shown here. Equal entries are not always repeated.

What was measured:
GLK/MAP4K3 = molecular target: T1, GLK/MAP4K3 (Homo sapiens, UniProt Q8IVH8); conditions: 1 μM; Run 1, Run 2
T1 sequence (Q8IVH8 1-894): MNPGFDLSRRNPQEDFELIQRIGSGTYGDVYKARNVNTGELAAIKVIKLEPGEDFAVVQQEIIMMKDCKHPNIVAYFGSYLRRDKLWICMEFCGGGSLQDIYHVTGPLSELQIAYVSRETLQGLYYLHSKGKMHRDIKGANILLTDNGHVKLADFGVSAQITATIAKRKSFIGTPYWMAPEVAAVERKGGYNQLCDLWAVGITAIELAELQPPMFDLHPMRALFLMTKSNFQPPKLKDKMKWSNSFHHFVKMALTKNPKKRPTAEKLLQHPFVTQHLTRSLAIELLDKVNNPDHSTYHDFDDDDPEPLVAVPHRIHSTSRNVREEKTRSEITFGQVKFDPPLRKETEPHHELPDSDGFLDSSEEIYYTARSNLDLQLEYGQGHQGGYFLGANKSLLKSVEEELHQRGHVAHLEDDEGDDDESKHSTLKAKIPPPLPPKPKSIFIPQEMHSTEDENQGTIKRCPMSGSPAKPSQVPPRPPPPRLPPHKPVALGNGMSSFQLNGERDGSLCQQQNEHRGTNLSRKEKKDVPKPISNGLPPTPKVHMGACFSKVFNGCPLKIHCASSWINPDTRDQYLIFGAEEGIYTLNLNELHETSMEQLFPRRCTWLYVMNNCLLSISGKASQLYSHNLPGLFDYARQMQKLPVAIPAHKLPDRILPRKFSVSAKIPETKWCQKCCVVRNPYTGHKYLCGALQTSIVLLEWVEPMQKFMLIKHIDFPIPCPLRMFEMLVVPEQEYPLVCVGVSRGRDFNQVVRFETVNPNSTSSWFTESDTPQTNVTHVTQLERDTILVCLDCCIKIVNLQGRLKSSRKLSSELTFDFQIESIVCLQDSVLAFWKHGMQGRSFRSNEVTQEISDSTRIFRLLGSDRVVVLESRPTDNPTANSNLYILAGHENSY

KDR/VEGFR2 = KDR/VEGFR2 (Homo sapiens, UniProt P35968); conditions: 1 μM; Run 1, Run 2
MARK4 = molecular target: T2, MARK4 (Homo sapiens, UniProt Q96L34); conditions: 1 μM; Run 1, Run 2
T2 sequence (Q96L34 1-752): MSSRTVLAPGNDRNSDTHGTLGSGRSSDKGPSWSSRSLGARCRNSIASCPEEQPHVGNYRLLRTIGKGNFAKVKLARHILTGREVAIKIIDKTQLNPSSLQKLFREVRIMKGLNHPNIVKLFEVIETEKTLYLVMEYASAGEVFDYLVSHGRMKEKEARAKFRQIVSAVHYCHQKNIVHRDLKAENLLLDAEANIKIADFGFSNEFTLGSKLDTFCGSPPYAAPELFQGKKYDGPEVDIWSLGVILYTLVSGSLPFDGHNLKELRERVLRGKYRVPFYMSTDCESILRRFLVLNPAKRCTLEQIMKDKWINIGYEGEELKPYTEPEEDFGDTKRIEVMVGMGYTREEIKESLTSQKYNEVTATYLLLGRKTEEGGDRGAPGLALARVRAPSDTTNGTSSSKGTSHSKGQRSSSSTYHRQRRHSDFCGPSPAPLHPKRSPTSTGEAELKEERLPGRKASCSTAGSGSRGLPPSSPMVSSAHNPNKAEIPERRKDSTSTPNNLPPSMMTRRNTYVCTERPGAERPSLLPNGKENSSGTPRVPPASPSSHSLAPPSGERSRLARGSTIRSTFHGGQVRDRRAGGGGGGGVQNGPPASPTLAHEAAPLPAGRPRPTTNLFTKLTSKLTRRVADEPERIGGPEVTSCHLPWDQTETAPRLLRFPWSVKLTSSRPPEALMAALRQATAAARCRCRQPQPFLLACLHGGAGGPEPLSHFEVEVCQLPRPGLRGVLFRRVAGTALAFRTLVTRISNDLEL

MEKK2 = molecular target: T3, MEKK2 (Homo sapiens, UniProt Q9Y2U5); conditions: 1 μM; Run 1, Run 2
T3 sequence (Q9Y2U5 1-619): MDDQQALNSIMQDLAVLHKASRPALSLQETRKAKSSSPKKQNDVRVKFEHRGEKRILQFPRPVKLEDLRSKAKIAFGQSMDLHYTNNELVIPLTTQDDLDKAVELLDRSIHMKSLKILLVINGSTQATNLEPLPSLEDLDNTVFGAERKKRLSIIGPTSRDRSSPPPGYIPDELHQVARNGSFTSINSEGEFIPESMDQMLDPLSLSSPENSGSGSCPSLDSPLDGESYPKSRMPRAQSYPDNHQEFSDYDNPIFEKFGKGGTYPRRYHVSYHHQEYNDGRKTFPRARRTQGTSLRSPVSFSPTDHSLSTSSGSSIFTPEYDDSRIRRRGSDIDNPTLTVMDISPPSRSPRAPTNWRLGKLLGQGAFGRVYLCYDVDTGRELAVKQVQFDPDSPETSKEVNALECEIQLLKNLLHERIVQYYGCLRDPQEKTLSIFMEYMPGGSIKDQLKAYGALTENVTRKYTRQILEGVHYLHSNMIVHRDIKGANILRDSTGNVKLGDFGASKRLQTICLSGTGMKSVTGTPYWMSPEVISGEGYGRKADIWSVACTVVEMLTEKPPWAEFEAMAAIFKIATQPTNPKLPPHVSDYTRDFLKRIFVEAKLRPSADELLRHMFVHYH

STK39/STLK3 = STK39/STLK3 (Homo sapiens, UniProt Q9UEW8); conditions: 1 μM; Run 1, Run 2
GRK4 = GRK4 (Homo sapiens, UniProt P32298); test: biochemical; conditions: read-out: % enzyme activity, 1 μM; Run 1, Run 2
WNK1 = WNK1 (Homo sapiens, UniProt Q9H4A3); test: biochemical; conditions: read-out: % enzyme activity, 1 μM; Run 1, Run 2
Chain of WNK1 (Q9H4A3 whole entry, species assumed): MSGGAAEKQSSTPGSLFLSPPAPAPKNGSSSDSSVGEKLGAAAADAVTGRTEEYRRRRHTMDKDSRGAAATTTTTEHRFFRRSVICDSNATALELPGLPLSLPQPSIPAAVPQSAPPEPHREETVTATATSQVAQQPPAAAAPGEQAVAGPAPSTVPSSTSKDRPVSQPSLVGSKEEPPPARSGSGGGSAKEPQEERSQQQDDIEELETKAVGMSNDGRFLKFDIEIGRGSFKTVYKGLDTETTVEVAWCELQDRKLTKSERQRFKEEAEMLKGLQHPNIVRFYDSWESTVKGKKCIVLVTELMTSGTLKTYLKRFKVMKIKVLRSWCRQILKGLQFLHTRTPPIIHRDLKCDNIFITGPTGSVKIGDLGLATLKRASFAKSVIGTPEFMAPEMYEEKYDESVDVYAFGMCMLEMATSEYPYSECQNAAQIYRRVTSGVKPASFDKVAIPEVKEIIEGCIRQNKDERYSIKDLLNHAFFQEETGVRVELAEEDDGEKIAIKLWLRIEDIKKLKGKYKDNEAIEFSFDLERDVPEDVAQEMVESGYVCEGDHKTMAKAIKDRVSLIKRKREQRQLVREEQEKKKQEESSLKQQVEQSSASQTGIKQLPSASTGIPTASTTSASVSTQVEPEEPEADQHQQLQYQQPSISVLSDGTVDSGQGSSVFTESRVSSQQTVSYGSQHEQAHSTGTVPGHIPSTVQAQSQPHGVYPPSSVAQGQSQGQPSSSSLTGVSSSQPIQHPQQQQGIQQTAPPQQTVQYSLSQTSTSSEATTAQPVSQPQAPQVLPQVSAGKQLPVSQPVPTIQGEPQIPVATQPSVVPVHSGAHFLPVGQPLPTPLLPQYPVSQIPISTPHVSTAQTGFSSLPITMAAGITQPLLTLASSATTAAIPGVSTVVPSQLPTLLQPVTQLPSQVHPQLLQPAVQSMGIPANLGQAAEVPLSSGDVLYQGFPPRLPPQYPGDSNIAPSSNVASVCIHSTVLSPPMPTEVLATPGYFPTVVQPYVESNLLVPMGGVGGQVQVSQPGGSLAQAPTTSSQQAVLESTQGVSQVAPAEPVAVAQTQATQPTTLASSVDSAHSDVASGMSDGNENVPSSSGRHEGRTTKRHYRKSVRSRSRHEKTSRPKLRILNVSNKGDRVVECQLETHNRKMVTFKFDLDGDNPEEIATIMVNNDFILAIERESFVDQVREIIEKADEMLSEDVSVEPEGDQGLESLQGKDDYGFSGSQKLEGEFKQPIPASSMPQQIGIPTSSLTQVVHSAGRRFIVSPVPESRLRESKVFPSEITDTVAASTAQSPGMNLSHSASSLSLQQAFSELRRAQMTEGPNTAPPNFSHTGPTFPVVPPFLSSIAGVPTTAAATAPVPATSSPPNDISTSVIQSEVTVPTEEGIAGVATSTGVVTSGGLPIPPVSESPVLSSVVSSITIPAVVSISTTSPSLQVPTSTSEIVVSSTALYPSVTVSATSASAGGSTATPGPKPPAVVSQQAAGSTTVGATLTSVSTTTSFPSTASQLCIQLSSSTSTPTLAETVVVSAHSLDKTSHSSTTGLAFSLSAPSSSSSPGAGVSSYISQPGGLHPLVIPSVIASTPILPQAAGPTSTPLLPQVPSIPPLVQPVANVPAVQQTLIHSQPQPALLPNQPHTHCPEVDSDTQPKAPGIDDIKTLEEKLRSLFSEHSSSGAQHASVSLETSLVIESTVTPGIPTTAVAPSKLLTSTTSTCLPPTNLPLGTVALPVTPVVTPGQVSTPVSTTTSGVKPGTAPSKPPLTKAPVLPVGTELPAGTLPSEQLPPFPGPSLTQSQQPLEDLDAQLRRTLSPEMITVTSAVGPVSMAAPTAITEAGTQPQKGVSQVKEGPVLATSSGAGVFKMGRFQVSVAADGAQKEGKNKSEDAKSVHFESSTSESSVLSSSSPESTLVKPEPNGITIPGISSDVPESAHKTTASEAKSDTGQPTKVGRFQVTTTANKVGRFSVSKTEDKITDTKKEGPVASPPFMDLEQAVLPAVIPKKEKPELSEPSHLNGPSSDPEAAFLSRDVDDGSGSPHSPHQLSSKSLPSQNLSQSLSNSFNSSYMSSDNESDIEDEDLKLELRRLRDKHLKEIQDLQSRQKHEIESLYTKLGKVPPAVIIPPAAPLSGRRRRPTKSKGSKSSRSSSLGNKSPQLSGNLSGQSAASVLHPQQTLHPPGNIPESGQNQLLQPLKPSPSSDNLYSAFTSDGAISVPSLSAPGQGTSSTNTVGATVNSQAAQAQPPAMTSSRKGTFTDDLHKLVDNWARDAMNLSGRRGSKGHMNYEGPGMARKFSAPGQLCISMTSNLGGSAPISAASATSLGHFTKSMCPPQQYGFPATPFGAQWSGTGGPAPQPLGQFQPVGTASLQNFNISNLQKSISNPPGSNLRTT

Chain of KDR/VEGFR2 (P35968 20-1356): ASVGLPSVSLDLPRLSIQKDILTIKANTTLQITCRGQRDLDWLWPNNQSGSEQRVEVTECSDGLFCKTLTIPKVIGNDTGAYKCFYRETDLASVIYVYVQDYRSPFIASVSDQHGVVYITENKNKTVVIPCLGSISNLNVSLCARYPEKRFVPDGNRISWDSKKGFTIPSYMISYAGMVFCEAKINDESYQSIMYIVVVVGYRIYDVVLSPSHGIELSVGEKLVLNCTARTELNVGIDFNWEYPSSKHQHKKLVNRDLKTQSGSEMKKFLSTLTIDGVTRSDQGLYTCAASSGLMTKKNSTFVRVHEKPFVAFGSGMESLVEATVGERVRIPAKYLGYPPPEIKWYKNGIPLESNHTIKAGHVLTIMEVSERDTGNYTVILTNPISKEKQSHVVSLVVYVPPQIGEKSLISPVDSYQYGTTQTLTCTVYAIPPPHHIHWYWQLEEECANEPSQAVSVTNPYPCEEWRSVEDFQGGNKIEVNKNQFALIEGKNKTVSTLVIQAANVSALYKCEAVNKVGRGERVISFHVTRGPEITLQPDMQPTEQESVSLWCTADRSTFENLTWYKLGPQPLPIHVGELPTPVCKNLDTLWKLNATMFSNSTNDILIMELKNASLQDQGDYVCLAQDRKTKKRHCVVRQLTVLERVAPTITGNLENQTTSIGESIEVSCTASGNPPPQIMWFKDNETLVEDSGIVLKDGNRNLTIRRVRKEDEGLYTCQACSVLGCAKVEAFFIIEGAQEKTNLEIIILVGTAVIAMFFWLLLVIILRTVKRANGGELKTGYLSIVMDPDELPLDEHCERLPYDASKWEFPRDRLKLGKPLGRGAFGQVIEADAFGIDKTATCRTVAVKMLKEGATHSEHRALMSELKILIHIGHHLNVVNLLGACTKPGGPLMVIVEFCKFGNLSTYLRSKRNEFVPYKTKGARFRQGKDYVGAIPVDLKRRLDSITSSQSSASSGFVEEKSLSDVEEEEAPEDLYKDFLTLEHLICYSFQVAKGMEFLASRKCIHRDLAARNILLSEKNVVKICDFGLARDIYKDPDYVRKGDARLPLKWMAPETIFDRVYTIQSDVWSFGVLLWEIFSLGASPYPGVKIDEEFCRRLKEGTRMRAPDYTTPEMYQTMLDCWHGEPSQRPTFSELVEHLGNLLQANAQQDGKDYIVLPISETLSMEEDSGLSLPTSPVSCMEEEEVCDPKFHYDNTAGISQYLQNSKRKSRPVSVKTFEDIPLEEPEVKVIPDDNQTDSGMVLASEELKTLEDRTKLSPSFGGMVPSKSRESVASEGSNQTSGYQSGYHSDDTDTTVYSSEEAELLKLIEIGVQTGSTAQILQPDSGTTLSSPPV
Chain of GRK4 (P32298 whole entry): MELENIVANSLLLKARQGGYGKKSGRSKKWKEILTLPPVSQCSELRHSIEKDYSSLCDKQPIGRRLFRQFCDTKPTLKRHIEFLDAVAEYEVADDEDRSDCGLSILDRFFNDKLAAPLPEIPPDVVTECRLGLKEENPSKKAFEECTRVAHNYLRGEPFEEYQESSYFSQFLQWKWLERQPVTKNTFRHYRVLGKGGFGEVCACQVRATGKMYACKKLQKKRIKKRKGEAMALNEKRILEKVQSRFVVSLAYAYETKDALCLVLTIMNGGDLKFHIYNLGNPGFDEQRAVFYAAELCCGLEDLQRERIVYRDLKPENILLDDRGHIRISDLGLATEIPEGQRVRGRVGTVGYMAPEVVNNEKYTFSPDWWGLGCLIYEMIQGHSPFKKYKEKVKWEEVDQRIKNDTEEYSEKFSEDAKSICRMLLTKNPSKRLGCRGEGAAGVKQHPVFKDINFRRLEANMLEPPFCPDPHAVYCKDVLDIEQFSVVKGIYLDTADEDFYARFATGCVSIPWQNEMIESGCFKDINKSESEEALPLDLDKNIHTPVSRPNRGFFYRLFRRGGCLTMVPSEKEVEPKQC

SMILES | % enzyme activity at 1 μM (TAOK1) | % enzyme activity (GLK/MAP4K3) [%] | % enzyme activity (KDR/VEGFR2) [%] | % enzyme activity (MARK4) [%] | % enzyme activity (MEKK2) [%] | % enzyme activity (STK39/STLK3) [%] | remaining activity at 1 µM (GRK4) [%] | remaining activity at 1 µM (WNK1) [%]
COc1cc(-c2cncc(-c3ccc(N4CCN(C)CC4)cc3)c2C)cc(F)c1C(N)=O [Compound 26a, 2-Fluoro-6-methoxy-4-(4-methyl-5-(4-(4-methylpiperazin-1-yl)phenyl)pyridin-3-yl)benzamide] | 60.3% and 60.2% | 88.16 | 92.99 | 82.62 | 95.51 | 88.76 | 80.4 | 108
COc1cc(-c2cncc(-c3ccc(N4C[C@@H](C)N(C)[C@@H](C)C4)cc3)c2C)cc(F)c1C(N)=O [Compound 26c, 2-Fluoro-6-methoxy-4-(4-methyl-5-(4-((3R,5S)-3,4,5-trimethylpiperazin-1-yl)phenyl)pyridin-3-yl)benzamide] | 62.2% and 60.6% | 88.71 | 85.59 | 95.76 | 100.62 | 93.62 | 97.1 | 104
